Test results taken from patent publication US9169252B2 (BRISTOL-MYERS SQUIBB COMPANY, priority 2014, dated 2015).

Assays:
[1] = tested on: TLR2 induced IL-6 in peripheral blood mononuclear cells (PBMCs); test: PBMC TLR2 Induced IL-6 Assay; type: cell-based, human; details: Homo sapiens, PBMC, PBMC TLR2 Induced IL-6 Assay; lipoteichoic acid stimulation, IL-6 by ELISA; read-out: Cell EC50
Summary of the method: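 Lipoteichoic acid at 10 µg/ml served as TLR2 stimulus for 5 hours, following a 30-minute compound pretreatment at 37° C. Cells were Ficoll-isolated human PBMCs, 250000 cells/well, cultured in RPMI plus 10% heat-inactivated FCS.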

IRAK4 = IRAK4 (Homo sapiens (Human), UniProt Q9NWZ3); test: IRAK4 Inhibition Assay; type: biochemical; details: IRAK4 Inhibition Assay; ATP 500 μM; read-out: IRAK4 IC50
Summary of the method: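 IRAK4 combined with fluorescent substrate and compounds, reacted 60 min at room temperature, stopped with 35 mM EDTA. Substrate and phosphorylated product separated electrophoretically on a Caliper LabChip 3000 mobility-shift reader.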

Sequence of IRAK4 (Q9NWZ3 whole entry, species assumed): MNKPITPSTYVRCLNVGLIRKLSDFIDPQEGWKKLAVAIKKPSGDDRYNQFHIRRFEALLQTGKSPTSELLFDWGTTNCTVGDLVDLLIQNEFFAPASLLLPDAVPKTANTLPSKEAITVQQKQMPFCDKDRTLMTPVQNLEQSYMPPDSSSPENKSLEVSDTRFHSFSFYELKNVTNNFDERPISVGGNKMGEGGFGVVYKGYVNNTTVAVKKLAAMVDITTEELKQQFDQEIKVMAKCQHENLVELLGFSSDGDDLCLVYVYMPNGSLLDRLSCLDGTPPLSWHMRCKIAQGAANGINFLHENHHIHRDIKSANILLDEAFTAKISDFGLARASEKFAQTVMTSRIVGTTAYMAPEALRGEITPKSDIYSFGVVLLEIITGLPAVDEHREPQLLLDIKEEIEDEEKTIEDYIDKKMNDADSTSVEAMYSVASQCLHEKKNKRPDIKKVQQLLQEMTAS

IC50 (IRAK4) [nM]	SMILES	EC50 [1] [nM]
4.5	CCNc1cc(-n2ccc3cc(C(N)=O)cnc32)ncc1C(=O)NC[C@@H](F)C(C)(C)O [Example 123, (R)-1-(4-(Ethylamino)-5-((2-fluoro-3-hydroxy-3-methylbutyl)carbamoyl)pyridin-2-yl)-1H-pyrrolo[2,3-b]pyridine-5-carboxamide]	128
4.8	CC(C)(O)[C@H](F)CNC(=O)c1cnc(-n2ccc3cc(C(N)=O)cnc32)cc1NC1CCC1 [Example 124, (R)-1-(4-(Cyclobutylamino)-5-((2-fluoro-3-hydroxy-3-methylbutyl)carbamoyl)pyridin-2-yl)-1H-pyrrolo[2,3-b]pyridine-5-carboxamide]	119
6.7	CC(=O)OC(C)(C)C(=O)NCCNC(=O)c1cnc(-n2ccc3cc(C#N)cnc32)cc1NC(C)C [Example 125, 1-((2-(6-(5-Cyano-1H-pyrrolo[2,3-b]pyridin-1-yl)-4-(isopropylamino)nicotinamido)ethyl)amino)-2-methyl-1-oxopropan-2-yl acetate]	202
7.5	CC(C)Nc1cc(-n2ccc3cc(C#N)cnc32)ncc1C(=O)NCCNC(=O)C(C)(C)O [Example 126, 6-(5-Cyano-1H-pyrrolo[2,3-b]pyridin-1-yl)-N-(2-(2-hydroxy-2-methylpropanamido)ethyl)-4-(isopropylamino)nicotinamide]	150
2.8	COC[C@H](F)CNC(=O)c1cnc(-n2ccc3cc(C#N)cnc32)cc1NC(C)C [Example 127, (R)-6-(5-Cyano-1H-pyrrolo[2,3-b]pyridin-1-yl)-N-(2-fluoro-3-methoxypropyl)-4-(isopropylamino)nicotinamide]	89
8.9	COC[C@H](F)CNC(=O)c1cnc(-n2ncc3cc(C#N)cnc32)cc1NC(C)C [Example 128, (R)-6-(5-Cyano-1H-pyrazolo[3,4-b]pyridin-1-yl)-N-(2-fluoro-3-methoxypropyl)-4-(isopropylamino)nicotinamide]	248
6.8	CC(C)(O)[C@H](F)CNC(=O)c1cnc(-n2ccc3cc(C#N)cnc32)cc1NC(CO)CF (stereo partly drawn) [Example 131, 6-(5-Cyano-1H-pyrrolo[2,3-b]pyridin-1-yl)-N—((R)-2-fluoro-3-hydroxy-3-methylbutyl)-4-((1-fluoro-3-hydroxypropan-2-yl)amino)nicotinamide]	410
4.7	CNC(=O)[C@H](F)CNC(=O)c1cnc(-n2ccc3cc(C#N)cnc32)cc1NC1CC1 [Example 132, (R)-6-(5-Cyano-1H-pyrrolo[2,3-b]pyridin-1-yl)-4-(cyclopropylamino)-N-(2-fluoro-3-(methylamino)-3-oxopropyl)nicotinamide]	92
2.6	CC(C)Nc1cc(-n2ncc3cc(C#N)cnc32)ncc1C(=O)NC[C@@H](F)C(C)(C)O [Example 133, (R)-6-(5-Cyano-1H-pyrazolo[3,4-b]pyridin-1-yl)-N-(2-fluoro-3-hydroxy-3-methylbutyl)-4-(isopropylamino)nicotinamide]	120
6.4	CCNc1cc(-n2ncc3cc(C#N)cnc32)ncc1C(=O)NC[C@@H](F)C(C)(C)O [Example 138, (R)-6-(5-cyano-1H-pyrazolo[3,4-b]pyridin-1-yl)-4-(ethylamino)-N-(2-fluoro-3-hydroxy-3-methylbutyl)nicotinamide]	152
2.9	CC(C)(O)[C@H](F)CNC(=O)c1cnc(-n2ncc3cc(C#N)cnc32)cc1NC1CC1 [Example 139, (R)-6-(5-cyano-1H-pyrazolo[3,4-b]pyridin-1-yl)-4-(cyclopropylamino)-N-(2-fluoro-3-hydroxy-3-methylbutyl)nicotinamide]	118
8.3	CNC(=O)[C@H]1CC[C@H](NC(=O)c2cnc(-n3ncc4cc(C#N)cnc43)cc2NC2CC2)CC1 [Example 140, 6-(5-cyano-1H-pyrazolo[3,4-b]pyridin-1-yl)-4-(cyclopropylamino)-N-((trans)-4-(methylcarbamoyl)cyclohexyl)nicotinamide]	226
2.2	CC(C)(O)[C@H](F)CNC(=O)c1cnc(-n2ncc3cc(C#N)cnc32)cc1NC1CCOCC1 [Example 141, (R)-6-(5-cyano-1H-pyrazolo[3,4-b]pyridin-1-yl)-N-(2-fluoro-3-hydroxy-3-methylbutyl)-4-((tetrahydro-2H-pyran-4-yl)amino)nicotinamide]	87
6.2	CC(C)Nc1cc(-n2ncc3cncnc32)ncc1C(=O)NC[C@@H](F)C(C)(C)O [Example 144, (R)—N-(2-fluoro-3-hydroxy-3-methylbutyl)-4-(isopropylamino)-6-(1H-pyrazolo[3,4-d]pyrimidin-1-yl)nicotinamide]	148
4.5	CC(C)(O)[C@H](F)CNC(=O)c1cnc(-n2ncc3cc(C#N)cnc32)cc1NC1CCC1 [Example 145, (R)-6-(5-cyano-1H-pyrazolo[3,4-b]pyridin-1-yl)-4-(cyclobutylamino)-N-(2-fluoro-3-hydroxy-3-methylbutyl)nicotinamide]	61
6.5	CC(C)Nc1cc(-n2ncc3cc(C#N)cnc32)ncc1C(=O)NCCC(C)(C)O [Example 146, 6-(5-cyano-1H-pyrazolo[3,4-b]pyridin-1-yl)-N-(3-hydroxy-3-methylbutyl)-4-(isopropylamino)nicotinamide]	267
11.9	CC(C)(O)[C@H](F)CNC(=O)c1cnc(-n2ncc3cc(C#N)cnc32)cc1NCC(F)(F)F [Example 147, (R)-6-(5-cyano-1H-pyrazolo[3,4-b]pyridin-1-yl)-N-(2-fluoro-3-hydroxy-3-methylbutyl)-4-((2,2,2-trifluoroethyl)amino)nicotinamide]	338
1.4	CC(C)Nc1cc(-n2ncc3cc(C#N)cnc32)ncc1C(=O)N[C@H]1CC[C@H](C(C)(C)O)CC1 [Example 148, 6-(5-cyano-1H-pyrazolo[3,4-b]pyridin-1-yl)-N-((trans)-4-(2-hydroxypropan-2-yl)cyclohexyl)-4-(isopropylamino)nicotinamide]	64
9.3	CCC(O)(CC)[C@H](F)CNC(=O)c1cnc(-n2ncc3cncnc32)cc1NC(C)C [Example 149, (R)—N-(3-ethyl-2-fluoro-3-hydroxypentyl)-4-(isopropylamino)-6-(1H-pyrazolo[3,4-d]pyrimidin-1-yl)nicotinamide]	239
9	CC(C)Nc1cc(-n2ncc3cc(Cl)cnc32)ncc1C(=O)N[C@H]1CC[C@H](C(C)(C)O)CC1 [Example 150, 6-(5-chloro-1H-pyrazolo[3,4-b]pyridin-1-yl)-N-((trans)-4-(2-hydroxypropan-2-yl)cyclohexyl)-4-(isopropylamino)nicotinamide]	593
14.8	CC(C)(O)CCNC(=O)c1cnc(-n2ncc3cc(C#N)cnc32)cc1NC1CCOCC1 [Example 151, 6-(5-cyano-1H-pyrazolo[3,4-b]pyridin-1-yl)-N-(3-hydroxy-3-methylbutyl)-4-((tetrahydro-2H-pyran-4-yl)amino)nicotinamide]	443
5.6	CNC(=O)[C@H]1CC[C@H](NC(=O)c2cnc(-n3ncc4cc(Cl)cnc43)cc2NC(C)C)CC1 [Example 152, 6-(5-chloro-1H-pyrazolo[3,4-b]pyridin-1-yl)-4-(isopropylamino)-N-((trans)-4-(methylcarbamoyl)cyclohexyl)nicotinamide]	294
12	CC(C)Nc1cc(-n2ncc3cc(Cl)cnc32)ncc1C(=O)NCCN1CCOCC1 [Example 154, 6-(5-chloro-1H-pyrazolo[3,4-b]pyridin-1-yl)-4-(isopropylamino)-N-(2-morpholinoethyl)nicotinamide]	584
7	Cc1cnc2c(cnn2-c2cc(NC(C)C)c(C(=O)NC[C@@H](F)C(C)(C)O)cn2)c1 [Example 155, (R)—N-(2-fluoro-3-hydroxy-3-methylbutyl)-4-(isopropylamino)-6-(5-methyl-1H-pyrazolo[3,4-b]pyridin-1-yl)nicotinamide]	164
9.5	CC(C)(O)[C@H](F)CNC(=O)c1cnc(-n2ncc3cc(F)cnc32)cc1NC1CC1 [Example 156, (R)-4-(cyclopropylamino)-6-(5-fluoro-1H-pyrazolo[3,4-b]pyridin-1-yl)-N-(2-fluoro-3-hydroxy-3-methylbutyl)nicotinamide]	231
5.3	CC(C)Nc1cc(-n2ncc3cc(F)cnc32)ncc1C(=O)NC[C@@H](F)C(C)(C)O [Example 157, (R)-6-(5-fluoro-1H-pyrazolo[3,4-b]pyridin-1-yl)-N-(2-fluoro-3-hydroxy-3-methylbutyl)-4-(isopropylamino) nicotinamide]	97
4.2	CC(C)Nc1cc(-n2ncc3cc(Br)cnc32)ncc1C(=O)NC[C@@H](F)C(C)(C)O [Example 158, (R)-6-(5-Bromo-1H-pyrazolo[3,4-b]pyridin-1-yl)-N-(2-fluoro-3-hydroxy-3-methylbutyl)-4-(isopropylamino)nicotinamide]	127
2.4	CC(C)(O)[C@H](F)CNC(=O)c1cnc(-n2ncc3cc(C#N)cnc32)cc1N[C@H]1CC[C@H](O)CC1 [Example 159, 6-(5-cyano-1H-pyrazolo[3,4-b]pyridin-1-yl)-N—((R)-2-fluoro-3-hydroxy-3-methylbutyl)-4-(((trans)-4-hydroxycyclohexyl)amino)nicotinamide]	112
